The text below walks through data of PubChem BioAssay AID1902 (Broad Institute, 2009).

Calls of active or inactive are those of the source.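 Rule for the calls: active = EC50 no more than a set limit of log units above the highest dose; inactive = the rest.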

The assay concerns the target S. pyogenes SKKanGAS, kanamycin survival, BacTiterGlo, 6 h. Description: SKKanGAS survival reduction under kanamycin, dose response, streptokinase promoter inhibitor project, SKKanGAS strain, luminescence, dose confirmation (AID 1902).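 Note: lower survival reflects blocked streptokinase promoter driving kanamycin resistance gene.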

Broadly, the EC50 is the concentration giving half of the maximal effect. For the compound `O=C(N/N=C/c1c(O)n(C2CCCCC2)c(=S)[nH]c1=O)c1ccccc1O`, the concentration giving a half-maximal response (EC50) was 0.601 µM.
The same measure for `CC1CCCN(S(=O)(=O)c2ccc(C(=O)Nc3nnc(C4CC4)o3)cc2)C1` (centres undefined): 3.3 µM.
For the compound `Nc1ccc(-c2cn3cccnc3n2)cc1`, the EC50 was > 15 µM (inactive).
With `Cc1noc(C)c1-c1nnc(-c2ccc(OC(F)(F)F)cc2)o1`, the EC50 is > 15 µM (inactive).
The same measure for `Cc1ccc(C)c(/C=N/NC(=S)NCCc2ccccc2)c1`: 4.05 µM; for `Cc1cc(Oc2cnn(C(C)(C)C)c(=O)c2Cl)cc(C(C)C)c1`: 4.37 µM; for `CC(C)(C)c1cc[n+](C2=C([O-])c3ccccc3C(=O)/C2=N\S(=O)(=O)c2ccccc2)cc1`: 3.2 µM.
For `O=C(c1cccs1)N1CCC(c2nc3c(nnn3Cc3ccccc3Cl)c(=O)[nH]2)CC1`, the EC50 is 7.09 µM.
The same measure for `Cc1ccnc(NC(c2ccsc2)c2ccc3ccc(C)nc3c2O)c1` (centres undefined): 11.7 µM; for `C[C@H]1COc2c(N3CCN(C)CC3)c(F)cc3c(=O)c(C(=O)O)cn1c23`: 1.55 µM.
`O=C(O)c1ccc(NC(=S)NC(=O)c2cccc(COc3ccccc3)c2)cc1`: the EC50 is 4.45 µM.
The same measure for `Cn1c(=O)c2c(nc(SCc3ccccc3)n2Cc2ccc(Cl)cc2)n(C)c1=O`: 2.3 µM; for `COc1ccc(NC(=O)c2c[nH]n3c(=O)cc(C4CCN(C(=O)OC(C)(C)C)CC4)nc23)cc1Cl`: 3.8 µM; for `CC(C)c1ccc2[nH]c(O)c(N=NC(=O)c3cccc(S(=O)(=O)N4CCCCC4)c3)c2c1`: 7.1 µM.
As for `Cc1ccc(C(=O)/C=C/C(=O)c2ccc(C)cc2)cc1`, the EC50 is 3.61 µM.
Under `CN1CCN(C(=O)C(=O)c2cn(CC(=O)N3CCCC3)c3ccccc23)CC1` stands > 15 µM (inactive); under `C[n+]1c(-c2ccccc2)c2cc(N)ccc2c2ccc(N)cc21`, 1.54 µM.
Under `Cc1ccn2c(Nc3ccccc3C)c(-c3ccccn3)nc2c1` stands 2.19 µM.
Take `Cc1ccc(C2C(C(=O)c3cc4ccccc4o3)=C(O)C(=O)N2c2cc(C)on2)cc1` (centres undefined): the EC50 is 2.1 µM.
The same measure for `Cc1ccc(-c2nn(-c3ccccc3)cc2/C=N/NC(=O)CSc2nnc(C)n2-c2ccccc2)cc1`: 9.84 µM; for `Cc1cccc(N=Nc2c(C)nn(-c3ccccc3)c2N)c1C`: 11.8 µM.
On to `CSc1ccc(/C=C2\CCn3c2nc2cc(C(=O)O)ccc2c3=O)cc1`, for which the EC50 is 6.15 µM.
The same measure for `CCCSc1nsc(NC(=O)C(c2ccccc2)c2ccccc2)n1`: 3.03 µM; for `Cc1ccc(-c2cc(-c3ccccc3Cl)[nH]n2)c(O)c1`: 2.19 µM.
On to `Cc1ccc(CN(C(=O)c2ccco2)C2CCS(=O)(=O)C2)cc1` (centres undefined), for which the EC50 is > 15 µM (inactive).
For the compound `COc1cccc(/C=C(/C(=O)OCC(=O)NC2CCCC(C)C2C)c2ccccc2)c1` (centres undefined), the EC50 was 8.45 µM.
For `Cc1cc(NC(=O)c2ccc(C)s2)n(-c2nc3ccccc3[nH]2)n1`, the EC50 was 3.44 µM.
The same measure for `COc1ccc2c(c1)c(CC(=O)NCc1cc([N+](=O)[O-])ccc1O)c(C)n2C(=O)c1ccc(Cl)cc1`: 9.89 µM; for `CC(C)Cn1c(=O)c(C(=O)N/N=C/c2cccc(F)c2)c(O)c2ccccc21`: 1.83 µM.
Turning to `FC(F)(F)c1nc(N2CCN(c3ccccc3)CC2)nc2c1CCCCC2`, the EC50 is 2.77 µM.
The same measure for `CCC(=O)Nc1nc2ccccc2n1Cc1ccccc1Cl`: 8.22 µM; for `C=C(C)C1Cc2c(C)nn(-c3cccc4ccccc34)c2C1` (centres undefined): 5.89 µM; for `O=C(Nc1nnc(SCc2ccc(F)cc2)s1)c1ccccn1`: 0.382 µM.
Under `O=C(/C=C/c1cccc([N+](=O)[O-])c1)c1ccc([N+](=O)[O-])o1` stands 2.88 µM.
As for `CC(=O)Nc1ccc(S(=O)(=O)N2CCN=C2SCc2ccc(C)cc2)cc1`, the EC50 was > 15 µM (inactive).
Under `O=c1c2ccccc2[se]n1-c1ccccc1` stands 1.52 µM.
Under `Cc1sc2ncnc(N3CCC(C(=O)NCC(=O)Nc4ccc(F)c(F)c4)CC3)c2c1C` stands 5.07 µM; under `CC(C)c1ccccc1OCC(O)CN(CC(O)COc1cccc2ccccc12)C(C)C` (centres undefined), 4.24 µM.
Turning to `COc1ccc(Cn2c(SCc3ccc(C)cc3)nc3cc(OC)c(OC)cc3c2=N)cc1Cl`, the EC50 was 2.65 µM.
Regarding `OCCCCC#Cc1c(-c2ccsc2)sc2ccccc12`, the EC50 is 7.82 µM.
The same measure for `Cc1nn(-c2ccccc2)c2sc(-c3n[nH]c(=S)o3)cc12`: 3.99 µM; for `Cc1cccc(OCCCCc2c(C)n[nH]c2C)c1C`: 4.74 µM; for `Cc1nn2c(COc3ccc(NC(=O)c4ccccc4)cc3)nnc2c2ccccc12`: 0.603 µM.
With `Cc1cccc(-n2ncc3c2CCCC3NC(=O)CCN2Cc3ccccc3C2=O)c1C` (centres undefined), the EC50 is > 15 µM (inactive).
Under `CCCOc1ccc(C2C(C(=O)c3cc4ccccc4o3)=C(O)C(=O)N2c2cc(C)on2)cc1OC` (centres undefined) stands 1.98 µM.
Under `O=C1c2ccccc2C(=O)c2[nH]c(=O)[nH]c21` stands 9.21 µM; under `Cc1cc(=O)c(C(=O)O)cn1Nc1ccc(Cl)cc1`, 2.36 µM; under `CCOC(=O)c1c(NC(=O)CCS(=O)(=O)c2ccccc2)sc2c1CCN(C)C2`, > 15 µM (inactive).
The same measure for `CC(Oc1ccc2ccccc2c1)C(=O)NNC(=S)NC(=O)c1ccco1` (centres undefined): 0.149 µM.
Turning to `C/C(=N\NC(=O)c1nnn(-c2nonc2N)c1CN(C)c1ccccc1)c1ccccc1O`, the concentration giving a half-maximal response (EC50) was 2.75 µM.
Take `Cc1ccc(NC(=O)CN(C)Cc2nc3c(Br)cc(Br)cc3c(=O)[nH]2)cc1`: the concentration giving a half-maximal response (EC50) was 3.79 µM.
Under `CC(C)(C)c1ccc(S(=O)(=O)N2CCC(c3nc4ccc(Cl)cc4[nH]3)CC2)cc1` stands 5.11 µM; under `CCOC(=O)c1cc(-c2ccc3c(c2)OCCO3)nc2c1c(C)nn2CCC#N`, 3.42 µM.
Under `CC(Oc1ccc(Br)cc1)C(=O)Nc1nc(-c2ccccn2)cs1` (centres undefined) stands less than 0.06 µM.
The same measure for `CCCCn1c(=O)c(C(=O)NCCc2ccccc2)c(O)c2ccccc21`: 3.73 µM.
With `Cc1cccc(OCC(=O)Nc2ccccc2N2CCCCC2)c1C`, the EC50 was 4.8 µM.
The same measure for `CC(C)c1ccc(-n2cccc2/C=C2/C(=N)N3C=CSC3=NC2=O)cc1`: 3.28 µM; for `O=C(Nc1scc(-c2ccc(Br)cc2)c1C(=O)O)c1ccccc1F`: 1.86 µM.
With `COc1ccc(-c2cc3nc[nH]c(=O)c3s2)cc1`, the EC50 was 8.36 µM.
As for `O=[N+]([O-])c1ccc(N=Nc2ccc(O)cc2O)cc1`, the EC50 is 2.94 µM.
The same measure for `CCc1ccc2[nH]c(O)c(N=Nc3nc(-c4ccccc4)cs3)c2c1`: 8.8 µM.
The same measure for `c1ccc(CSC2=NNC(c3ccccn3)S2)cc1` (centres undefined): 1.13 µM; for `COc1ccc(CC(=O)NC(=S)NNC(=O)COc2c(C)cccc2C)cc1`: 0.134 µM.
As to `CC1(C)CC(=O)C2=C(C1)N=C1c3ccccc3C(=O)C1C2c1ccc(Cl)cc1` (centres undefined), the EC50 was 8.16 µM.
Turning to `O=C(/C=C1\NC2(CCCC2)Cc2ccccc21)C(=O)N/N=C/c1ccccc1O`, the EC50 is 2.27 µM.
Under `O/N=C(\c1ccc(Cl)cc1Cl)c1ncc(C(F)(F)F)cc1Cl` stands 2.74 µM; under `O=C1c2ccccc2C(=O)c2c1oc(C(F)(F)F)c2C(=O)c1ccccc1`, 1.82 µM.
Under `Cc1ccc(Cl)cc1NC1=C/C(=N\S(=O)(=O)c2cccs2)c2ccccc2C1=O` stands 0.908 µM.
Under `Cc1ccc(OCCn2c(=S)[nH]c3ccccc32)c(C(C)C)c1` stands 2.13 µM; under `O=c1cc(N2CCCCC2)c(-c2ccccc2)nn1Cc1ccc(Cl)cc1Cl`, 3.04 µM; under `CN1CCN(C(c2ccc(C(F)(F)F)cc2)c2ccc3cccnc3c2O)CC1` (centres undefined), 3.02 µM.
As to `Nc1nc(-c2ccccn2)nc(N)c1Cc1ccc(Cl)cc1Cl`, the EC50 is 5.03 µM.
Under `COc1ccc(Br)cc1/C=C/C(=O)NC(=S)Nc1ccc(Cl)c(C(=O)O)c1` stands 10.5 µM; under `COc1ccc(NC(=O)CSc2nc3nc(-c4cccs4)cc(C(F)(F)F)c3c(=O)[nH]2)c(OC)c1`, 7.42 µM.
With `Cc1ccc(/C=C/c2ccc(=O)n(Cc3ccccc3Cl)n2)cc1`, the EC50 was 6 µM.
Under `Nc1nc(CN2CCN(c3ccc(F)cc3)CC2)nc(N2CCCc3ccccc32)n1` stands 0.178 µM; under `Oc1ccc(Br)cc1/C=N/Nc1ncc(-c2ccccc2)cn1`, 1.7 µM.
Under `COc1ccc(CNC(=O)c2c(C)oc3c2C(=O)c2ccccc2C3=O)cc1` stands 0.81 µM; under `COc1cc(C(=O)NS(=O)(=O)c2ccccc2C)ccc1Cc1cn(C)c2ccc(NC(=O)OC3CCCC3)cc12`, 2.05 µM; under `Nc1nc(Nc2cccc(Cl)c2)nc(NCc2ccco2)c1[N+](=O)[O-]`, 7.92 µM.
Under `CCc1ccc(-c2cc(C(=O)N/N=C/c3c[nH]c4ccccc34)[nH]n2)cc1` stands 5.96 µM; under `Cc1ccc(OCCn2c(NC(=O)c3ccco3)nc3ccccc32)cc1`, 3.58 µM; under `COc1ccccc1-c1cc(-c2ccccc2)nc(SCC(=O)O)c1C#N`, 1.97 µM.
For the compound `CCOC(=O)c1sc(N2C(=O)C(O)=C(C(=O)c3ccco3)C2c2cccc(Cl)c2)nc1C` (centres undefined), the EC50 was 5.26 µM.
On to `Oc1ccc(Br)cc1/C=N/Nc1nc(N2CCCCC2)nc(N2CCOCC2)n1`, for which the EC50 was 3.81 µM.
The same measure for `CCCN(CCC)c1nc(-c2ccccn2)nc2ccccc12`: 0.074 µM.
Under `O=C(Nc1nc2ccc(SC(F)F)cc2s1)c1ccc(NS(=O)(=O)c2ccc(F)c(F)c2)cc1` stands 1.89 µM; under `COc1ccc(-c2nn(-c3ccccc3)cc2/C=C/C(=O)N2CCN(c3ccccn3)CC2)cc1`, 4.69 µM.
Under `O=C(COc1ccccc1)NC1C(=O)N2C(C(=O)O)=C(Cl)CSC12` (centres undefined) stands 0.128 µM; under `CC(C)(C)OC(=O)[C@H](Cc1ccccc1)NC(=O)c1[nH]cnc1C(=O)Nc1cccc(Cl)c1`, 2.4 µM; under `CC1CCN(c2nc(CN3CCCCC3)nc3scc(-c4ccccc4)c23)CC1`, 3.02 µM.
Turning to `CCOC(=O)c1ccc(NC2=CC(=O)C(=O)c3ccccc32)cc1`, the EC50 was 3.48 µM.
As to `O=C(N/N=C/c1cc(Cl)cc([N+](=O)[O-])c1O)c1ccccc1NS(=O)(=O)c1cccs1`, the EC50 is 12 µM.
The same measure for `COc1cc(O)c(CC=C(C)C)c(O)c1C(=O)CCc1ccc(O)cc1`: 2.76 µM.
